Test results: US10245261B2, “Substituted indol-5-ol derivatives and their therapeutic applications” (NantBioScience, Inc., priority 2013, dated 2019)

How the values were obtained:
Test in all cases: KinaseProfiler kinase assay
Type in all cases: biochemical
[1] = molecular target: PI3 Kinase (p110α(E545K)/p85α)(m) (Mus musculus, UniProt P42337, E545K)
Summary of the method: (§1)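 Compounds were serially diluted from DMSO into 20 mM MOPS buffer with EDTA, Brij-35, glycerol, β-mercaptoethanol and 1 mg/mL BSA. Reactions started with MgATP/[γ-33P]ATP, ran 40 min at room temperature, and phosphorylation was measured by scintillation counting after filtermat capture.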

[2] = molecular target: NEK3(h) (Homo sapiens, UniProt P51956)
Summary of the method: as §1

[3] = molecular target: Tie2(R849W)(h) (Homo sapiens, UniProt Q02763, R849W)
Summary of the method: as §1

[4] = molecular target: PKBβ(h) (Homo sapiens, UniProt P31751)
Summary of the method: as §1

[5] = molecular target: PI3 Kinase (p110α/p65α)(m) (Mus musculus, UniProt P42337)
Summary of the method: as §1

[6] = molecular target: MAPK1(h) (Homo sapiens, UniProt P27361)
Summary of the method: as §1

[7] = molecular target: DDR2(h) (Homo sapiens, UniProt Q16832)
Chain of DDR2(h) (Q16832 22-855): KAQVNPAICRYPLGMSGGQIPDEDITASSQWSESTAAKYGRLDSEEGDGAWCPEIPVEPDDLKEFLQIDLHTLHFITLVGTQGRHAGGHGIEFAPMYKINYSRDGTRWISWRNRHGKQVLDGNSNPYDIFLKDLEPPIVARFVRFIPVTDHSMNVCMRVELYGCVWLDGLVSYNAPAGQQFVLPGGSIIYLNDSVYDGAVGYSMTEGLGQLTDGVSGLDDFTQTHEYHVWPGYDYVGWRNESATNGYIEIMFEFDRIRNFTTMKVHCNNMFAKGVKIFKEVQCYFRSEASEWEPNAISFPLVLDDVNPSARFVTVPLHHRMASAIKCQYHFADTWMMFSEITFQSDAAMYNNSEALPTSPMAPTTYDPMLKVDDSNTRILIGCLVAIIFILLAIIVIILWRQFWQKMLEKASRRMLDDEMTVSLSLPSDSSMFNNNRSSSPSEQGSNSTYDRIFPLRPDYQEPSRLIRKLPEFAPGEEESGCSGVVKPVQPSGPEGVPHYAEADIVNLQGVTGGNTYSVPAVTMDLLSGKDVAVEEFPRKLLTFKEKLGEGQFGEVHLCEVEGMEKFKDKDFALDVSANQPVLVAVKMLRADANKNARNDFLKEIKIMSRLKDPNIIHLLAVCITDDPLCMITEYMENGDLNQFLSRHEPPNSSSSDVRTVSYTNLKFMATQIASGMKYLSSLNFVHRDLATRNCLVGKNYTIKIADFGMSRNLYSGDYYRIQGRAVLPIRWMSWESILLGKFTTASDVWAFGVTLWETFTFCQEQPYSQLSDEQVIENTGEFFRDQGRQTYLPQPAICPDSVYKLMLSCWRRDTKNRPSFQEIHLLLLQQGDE
Summary of the method: as §1

[8] = molecular target: Pim-3(h) (Homo sapiens, UniProt Q86V86)
Summary of the method: as §1

[9] = molecular target: Met(D1246N)(h) (Homo sapiens, UniProt P08581, D1228N)
Summary of the method: as §1

[10] = molecular target: Met(D1246H)(h) (Homo sapiens, UniProt P08581, D1228H)
Summary of the method: as §1

[11] = molecular target: PKA(h) (Homo sapiens, UniProt P17612)
Summary of the method: as §1

[12] = molecular target: Fms(Y969C)(h) (Homo sapiens, UniProt P07333, Y969C)
Summary of the method: as §1

[13] = molecular target: SAPK3(h) (Homo sapiens, UniProt P53778)
Summary of the method: as §1

[14] = molecular target: VRK2(h) (Homo sapiens, UniProt Q86Y07)
Summary of the method: as §1

[15] = molecular target: Fyn(h) (Homo sapiens, UniProt P06241)
Summary of the method: as §1

[16] = molecular target: NEK6(h) (Homo sapiens, UniProt Q9HC98)
Chain of NEK6(h) (Q9HC98 whole entry): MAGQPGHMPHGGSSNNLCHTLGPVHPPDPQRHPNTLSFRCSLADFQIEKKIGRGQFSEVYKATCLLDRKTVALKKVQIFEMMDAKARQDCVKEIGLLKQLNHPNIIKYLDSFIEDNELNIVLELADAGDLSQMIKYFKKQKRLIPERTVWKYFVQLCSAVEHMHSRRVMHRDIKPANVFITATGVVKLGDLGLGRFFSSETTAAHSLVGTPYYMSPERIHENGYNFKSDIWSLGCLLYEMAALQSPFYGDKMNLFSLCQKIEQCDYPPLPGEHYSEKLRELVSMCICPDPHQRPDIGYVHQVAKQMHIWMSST
Summary of the method: as §1

[17] = molecular target: DCAMKL2(h) (Homo sapiens, UniProt Q8N568)
Summary of the method: as §1

[18] = molecular target: CDK2/cyclinE(h) (Homo sapiens, UniProt P24941)
Summary of the method: as §1

[19] = molecular target: EphA3(h) (Homo sapiens, UniProt P29320)
Chain of EphA3(h) (P29320 21-983): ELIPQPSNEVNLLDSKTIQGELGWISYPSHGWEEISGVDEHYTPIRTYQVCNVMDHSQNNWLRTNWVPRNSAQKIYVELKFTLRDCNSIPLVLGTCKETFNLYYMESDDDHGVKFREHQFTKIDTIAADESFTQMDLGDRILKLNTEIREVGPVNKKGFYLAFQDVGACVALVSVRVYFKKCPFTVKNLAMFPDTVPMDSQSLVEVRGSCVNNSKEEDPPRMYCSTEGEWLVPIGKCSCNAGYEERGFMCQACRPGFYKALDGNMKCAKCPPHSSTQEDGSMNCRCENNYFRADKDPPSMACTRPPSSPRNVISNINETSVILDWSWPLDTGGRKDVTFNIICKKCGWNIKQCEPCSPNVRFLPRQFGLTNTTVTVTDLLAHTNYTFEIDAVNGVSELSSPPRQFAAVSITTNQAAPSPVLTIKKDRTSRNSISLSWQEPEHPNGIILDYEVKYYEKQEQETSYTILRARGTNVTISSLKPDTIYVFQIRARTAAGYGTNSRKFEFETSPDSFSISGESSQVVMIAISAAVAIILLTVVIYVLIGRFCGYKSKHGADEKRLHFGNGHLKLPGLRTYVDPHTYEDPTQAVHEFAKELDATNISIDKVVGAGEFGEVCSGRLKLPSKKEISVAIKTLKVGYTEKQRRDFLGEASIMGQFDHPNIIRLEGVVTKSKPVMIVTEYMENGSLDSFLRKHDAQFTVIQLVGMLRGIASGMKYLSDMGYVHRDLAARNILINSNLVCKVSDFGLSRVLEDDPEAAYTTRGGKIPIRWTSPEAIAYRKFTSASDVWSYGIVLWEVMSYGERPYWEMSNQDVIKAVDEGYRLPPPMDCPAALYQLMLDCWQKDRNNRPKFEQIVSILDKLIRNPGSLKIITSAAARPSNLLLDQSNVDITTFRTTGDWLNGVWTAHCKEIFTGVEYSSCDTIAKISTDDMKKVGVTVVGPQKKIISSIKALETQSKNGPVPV
Summary of the method: as §1

[20] = molecular target: CDK3/cyclinE(h) (Homo sapiens, UniProt Q00526)
Summary of the method: as §1

[21] = molecular target: CaMKIIβ(h) (Homo sapiens, UniProt Q13554)
Summary of the method: as §1

[22] = molecular target: MINK(h) (Homo sapiens, UniProt Q8N4C8)
Summary of the method: as §1

[23] = molecular target: EphB4(h) (Homo sapiens, UniProt P54760)
Summary of the method: as §1

[24] = molecular target: PKCβII(h) (Homo sapiens, UniProt P05771)
Chain of PKCβII(h) (P05771 1-673 isoform P05771-2): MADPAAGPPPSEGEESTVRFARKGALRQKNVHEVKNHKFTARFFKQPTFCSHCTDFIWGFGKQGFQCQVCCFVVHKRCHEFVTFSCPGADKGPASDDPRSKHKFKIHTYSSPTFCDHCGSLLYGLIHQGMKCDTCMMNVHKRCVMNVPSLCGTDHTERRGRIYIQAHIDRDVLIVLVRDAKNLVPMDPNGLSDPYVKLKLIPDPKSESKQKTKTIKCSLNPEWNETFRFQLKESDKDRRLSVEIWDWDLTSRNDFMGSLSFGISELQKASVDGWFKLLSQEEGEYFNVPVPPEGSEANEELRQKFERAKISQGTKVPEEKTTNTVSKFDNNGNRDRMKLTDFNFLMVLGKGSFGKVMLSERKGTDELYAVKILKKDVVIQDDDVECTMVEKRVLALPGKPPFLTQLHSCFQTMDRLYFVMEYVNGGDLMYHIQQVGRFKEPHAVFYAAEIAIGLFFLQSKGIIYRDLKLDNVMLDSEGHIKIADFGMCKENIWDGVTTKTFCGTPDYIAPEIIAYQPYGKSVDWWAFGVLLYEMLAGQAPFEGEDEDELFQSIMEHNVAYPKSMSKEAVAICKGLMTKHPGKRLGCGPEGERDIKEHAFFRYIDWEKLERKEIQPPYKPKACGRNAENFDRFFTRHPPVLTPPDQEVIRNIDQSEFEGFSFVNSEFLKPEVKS
Summary of the method: as §1

[25] = molecular target: NLK(h) (Homo sapiens, UniProt Q9UBE8)
Chain of NLK(h) (Q9UBE8 whole entry): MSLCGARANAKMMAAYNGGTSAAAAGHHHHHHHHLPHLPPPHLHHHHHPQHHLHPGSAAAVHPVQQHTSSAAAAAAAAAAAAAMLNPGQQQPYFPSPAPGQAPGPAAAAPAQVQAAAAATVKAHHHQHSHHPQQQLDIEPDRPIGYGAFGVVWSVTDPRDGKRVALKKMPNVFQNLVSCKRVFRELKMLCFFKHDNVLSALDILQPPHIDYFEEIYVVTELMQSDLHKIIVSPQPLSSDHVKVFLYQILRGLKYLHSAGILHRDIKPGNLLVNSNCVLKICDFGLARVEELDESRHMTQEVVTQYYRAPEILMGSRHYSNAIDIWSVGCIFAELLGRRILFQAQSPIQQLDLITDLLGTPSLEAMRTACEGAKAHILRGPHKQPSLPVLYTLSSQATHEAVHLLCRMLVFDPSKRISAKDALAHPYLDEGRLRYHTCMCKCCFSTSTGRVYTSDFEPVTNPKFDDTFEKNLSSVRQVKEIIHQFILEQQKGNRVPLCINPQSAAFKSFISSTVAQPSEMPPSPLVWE
Summary of the method: as §1

[26] = molecular target: Src(T341M)(h) (Homo sapiens, UniProt P12931, T341M)
Chain of Src(T341M)(h) (P12931 whole entry T341M): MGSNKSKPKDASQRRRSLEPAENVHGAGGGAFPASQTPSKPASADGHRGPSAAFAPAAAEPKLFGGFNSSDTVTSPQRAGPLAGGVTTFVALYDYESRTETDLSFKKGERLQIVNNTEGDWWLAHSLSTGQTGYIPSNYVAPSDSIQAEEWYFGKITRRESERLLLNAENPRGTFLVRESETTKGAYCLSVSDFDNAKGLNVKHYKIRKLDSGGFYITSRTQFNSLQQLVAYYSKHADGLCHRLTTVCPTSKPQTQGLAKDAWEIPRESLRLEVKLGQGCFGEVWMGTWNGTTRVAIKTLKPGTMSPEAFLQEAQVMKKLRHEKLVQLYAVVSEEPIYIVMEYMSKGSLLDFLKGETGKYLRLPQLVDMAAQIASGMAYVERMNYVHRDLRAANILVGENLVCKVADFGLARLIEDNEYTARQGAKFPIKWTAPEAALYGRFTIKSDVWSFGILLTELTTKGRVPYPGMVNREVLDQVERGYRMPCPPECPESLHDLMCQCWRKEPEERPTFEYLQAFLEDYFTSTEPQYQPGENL
Summary of the method: as §1

[27] = molecular target: PI3 Kinase (p110α/p85α)(m) (Mus musculus, UniProt P42337)
Summary of the method: as §1

[28] = molecular target: GSK3β(h) (Homo sapiens, UniProt P49841)
Summary of the method: as §1

[29] = molecular target: EphB3(h) (Homo sapiens, UniProt P54753)
Summary of the method: as §1

[30] = molecular target: EGFR(T790M)(h) (Homo sapiens, UniProt P00533, T790M)
Chain of EGFR(T790M)(h) (P00533 25-1210 T790M): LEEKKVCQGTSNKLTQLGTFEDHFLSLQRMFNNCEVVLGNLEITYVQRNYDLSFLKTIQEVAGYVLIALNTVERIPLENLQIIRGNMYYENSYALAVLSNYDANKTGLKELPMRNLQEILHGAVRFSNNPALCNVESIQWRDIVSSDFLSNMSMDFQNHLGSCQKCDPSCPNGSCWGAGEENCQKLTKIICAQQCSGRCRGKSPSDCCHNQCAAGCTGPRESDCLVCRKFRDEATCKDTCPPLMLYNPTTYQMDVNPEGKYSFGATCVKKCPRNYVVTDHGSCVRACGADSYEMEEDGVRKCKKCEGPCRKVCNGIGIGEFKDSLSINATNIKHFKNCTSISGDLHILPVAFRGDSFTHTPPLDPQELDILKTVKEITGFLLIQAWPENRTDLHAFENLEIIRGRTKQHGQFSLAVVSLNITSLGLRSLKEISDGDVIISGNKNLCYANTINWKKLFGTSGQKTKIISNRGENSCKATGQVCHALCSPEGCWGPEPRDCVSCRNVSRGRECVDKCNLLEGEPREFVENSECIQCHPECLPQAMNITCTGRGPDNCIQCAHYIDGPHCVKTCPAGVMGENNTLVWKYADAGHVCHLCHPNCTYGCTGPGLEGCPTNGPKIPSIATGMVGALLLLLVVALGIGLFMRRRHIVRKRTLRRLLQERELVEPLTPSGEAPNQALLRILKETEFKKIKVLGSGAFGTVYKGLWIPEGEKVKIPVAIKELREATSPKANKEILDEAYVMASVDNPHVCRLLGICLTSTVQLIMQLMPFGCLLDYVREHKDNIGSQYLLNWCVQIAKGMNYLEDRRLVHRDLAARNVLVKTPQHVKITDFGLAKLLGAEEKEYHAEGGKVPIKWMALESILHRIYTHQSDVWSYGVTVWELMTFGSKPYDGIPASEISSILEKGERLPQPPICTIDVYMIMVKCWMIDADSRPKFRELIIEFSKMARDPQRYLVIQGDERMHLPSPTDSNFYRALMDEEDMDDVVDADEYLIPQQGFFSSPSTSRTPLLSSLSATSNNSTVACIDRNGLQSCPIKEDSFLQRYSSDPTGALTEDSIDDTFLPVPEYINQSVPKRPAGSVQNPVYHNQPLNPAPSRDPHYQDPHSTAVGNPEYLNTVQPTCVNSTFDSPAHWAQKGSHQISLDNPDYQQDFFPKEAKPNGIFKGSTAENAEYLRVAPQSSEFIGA
Summary of the method: as §1

[31] = molecular target: PKBα(h) (Homo sapiens, UniProt P31749)
Summary of the method: as §1

| SMILES | inhibition at 0.1 µM [1] | inhibition at 0.1 µM [2] | inhibition at 0.1 µM [3] | inhibition at 0.1 µM [4] | inhibition at 0.1 µM [5] | inhibition at 0.1 µM [6] | inhibition at 0.1 µM [7] | inhibition at 0.1 µM [8] | inhibition at 0.1 µM [9] | inhibition at 0.1 µM [10] | inhibition at 0.1 µM [11] | inhibition at 0.1 µM [12] | inhibition at 0.1 µM [13] | inhibition at 0.1 µM [14] | inhibition at 0.1 µM [15] | inhibition at 0.1 µM [16] | inhibition at 0.1 µM [17] | inhibition at 0.1 µM [18] | inhibition at 0.1 µM [19] | inhibition at 0.1 µM [20] | also measured |
| --- | --- | --- | --- | --- | --- | --- | --- | --- | --- | --- | --- | --- | --- | --- | --- | --- | --- | --- | --- | --- | --- |
| Cc1cc2c(F)c(Oc3nc(Nc4cc(C5CC5)[nH]n4)cc(N4CCN(C)CC4)n3)ccc2[nH]1 [Compound 10] | 0% | 18% | 88% | -35% | -1% | -4% | 80% | -1% | 80% | 74% | 2% | 67% | -4% | 34% | 102% | -11% | 16% | 1% | 47% | 0% | inhibition at 0.1 µM [21]: -5%; inhibition at 0.1 µM [22]: 7%; inhibition at 0.1 µM [23]: 85%; inhibition at 0.1 µM [24]: 3%; inhibition at 0.1 µM [25]: -12%; inhibition at 0.1 µM [26]: 102%; inhibition at 0.1 µM [27]: 1%; inhibition at 0.1 µM [28]: -15%; inhibition at 0.1 µM [29]: -8%; inhibition at 0.1 µM [30]: 17%; inhibition at 0.1 µM [31]: -24% |
| Cc1cc2c(F)c(Oc3nc(Nc4cc(C5CC5)[nH]n4)cc(N4CCNCC4)n3)ccc2[nH]1 [Compound 11, N-(5-cyclopropyl-1H-pyrazol-3-yl)-2-((4-fluoro-2-methyl-1H-indol-5-yl)oxy)-6-(piperazin-1-yl)pyrimidin-4-amine] | 1% | 16% | 93% | -9% | 2% | -10% | 83% | -4% | 84% | 93% | -12% | 73% | -24% | 4% | 99% | -11% | 15% | 3% | 56% | 33% | inhibition at 0.1 µM [21]: 8%; inhibition at 0.1 µM [22]: 31%; inhibition at 0.1 µM [23]: 85%; inhibition at 0.1 µM [24]: -3%; inhibition at 0.1 µM [25]: -8%; inhibition at 0.1 µM [26]: 101%; inhibition at 0.1 µM [27]: -1%; inhibition at 0.1 µM [28]: 19%; inhibition at 0.1 µM [29]: -18%; inhibition at 0.1 µM [30]: 30%; inhibition at 0.1 µM [31]: -4% |
